Source: ChEMBL document CHEMBL3217456 (Medchemcomm, 2014)
Activity calls are given as the source filed them. No cut-off for these calls is given here.

What was measured:
Histamine H2 receptor [1] = target: T1, Histamine H2 receptor (Homo sapiens, UniProt P25021); assay: (§1) Antagonist activity at human recombinant histamine H2 receptor-Gsalphas fusion protein expressed in Sf9 cells assessed as inhibition of histamine-induced […] hydrolysis preincubated for 2 mins before [gamma32P]GTP addition measured after 20 mins by steady-state GTPase activity assay; format: functional
T1 sequence (P25021 whole entry, the tested form may be a part): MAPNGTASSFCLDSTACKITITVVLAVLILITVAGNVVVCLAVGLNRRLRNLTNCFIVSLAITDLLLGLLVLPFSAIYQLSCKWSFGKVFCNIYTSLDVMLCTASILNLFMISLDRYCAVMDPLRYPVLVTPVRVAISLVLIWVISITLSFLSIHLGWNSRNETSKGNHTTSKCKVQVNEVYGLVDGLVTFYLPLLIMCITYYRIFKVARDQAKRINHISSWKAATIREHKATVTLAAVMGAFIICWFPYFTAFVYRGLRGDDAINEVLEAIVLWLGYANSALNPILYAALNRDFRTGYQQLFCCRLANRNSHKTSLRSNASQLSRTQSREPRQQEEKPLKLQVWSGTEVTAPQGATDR

[2] = target: Histamine H2 receptor (Cavia porcellus) (UniProt P47747); assay: Agonist activity at guinea pig histamine H2 receptor assessed as potentiation of histamine-induced response at 30 uM after 30 mins relative to histamine
Sequence of Histamine H2 receptor (Cavia porcellus) (P47747 whole entry, the tested form may be a part): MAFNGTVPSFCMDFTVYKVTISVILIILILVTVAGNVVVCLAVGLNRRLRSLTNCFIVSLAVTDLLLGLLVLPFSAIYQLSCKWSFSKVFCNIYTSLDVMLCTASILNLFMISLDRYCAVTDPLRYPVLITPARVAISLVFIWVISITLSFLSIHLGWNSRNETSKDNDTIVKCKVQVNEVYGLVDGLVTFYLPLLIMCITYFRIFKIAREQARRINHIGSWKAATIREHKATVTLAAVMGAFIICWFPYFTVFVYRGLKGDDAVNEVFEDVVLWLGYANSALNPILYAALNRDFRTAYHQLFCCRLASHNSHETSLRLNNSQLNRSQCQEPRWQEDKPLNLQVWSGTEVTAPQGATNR

Histamine H3 receptor [3] = target: T2, Histamine H3 receptor (Homo sapiens, UniProt Q9Y5N1); assay: as §1, with “H3 receptor” for “H2 receptor-Gsalphas fusion protein”, “cells coexpressing Galphai2,Gbeta1gamma2 and RGS4” for “cells”; format: functional
T2 sequence (Q9Y5N1 whole entry, the tested form may be a part): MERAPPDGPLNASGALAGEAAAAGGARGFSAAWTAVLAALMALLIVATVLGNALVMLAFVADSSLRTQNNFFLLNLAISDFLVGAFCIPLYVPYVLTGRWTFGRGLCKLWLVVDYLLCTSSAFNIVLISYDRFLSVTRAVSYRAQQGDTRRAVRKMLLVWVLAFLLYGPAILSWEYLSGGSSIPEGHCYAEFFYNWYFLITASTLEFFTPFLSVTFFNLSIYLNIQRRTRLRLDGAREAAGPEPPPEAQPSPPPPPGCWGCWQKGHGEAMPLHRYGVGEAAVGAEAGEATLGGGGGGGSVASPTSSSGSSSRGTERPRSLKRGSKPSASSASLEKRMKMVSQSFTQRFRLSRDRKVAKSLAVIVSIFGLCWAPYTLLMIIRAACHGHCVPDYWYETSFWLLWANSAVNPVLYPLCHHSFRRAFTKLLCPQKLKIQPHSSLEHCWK

[4] = target: Histamine H2 receptor (Cavia porcellus) (UniProt P47747); assay: Antagonist activity at guinea pig histamine H2 receptor assessed as reduction of histamine-induced maximal response after 30 mins
Histamine H2 receptor [5] = target: T3, Histamine H2 receptor (Cavia porcellus, UniProt P47747); assay: (§2) Antagonist activity at guinea pig histamine H2 receptor assessed as inhibition of histamine-induced response after 30 mins; conditions: read-out: pA2 (converted)
T3 sequence (P47747 whole entry, the tested form may be a part): as the sequence (P47747 whole entry, the tested form may be a part) above

Histamine H4 receptor [6] = target: T4, Histamine H4 receptor (Homo sapiens, UniProt Q9H3N8); assay: Intrinsic activity at human recombinant histamine H4 receptor-RGS19 fusion protein expressed in Sf9 cells coexpressing Galphai2,Gbeta1gamma2 preincubated for 2 mins before [gamma32P]GTP addition measured after 20 mins by steady-state GTPase activity assay relative to histamine
Histamine H4 receptor [7] = target: T4, Histamine H4 receptor; assay: Agonist activity at human recombinant histamine H4 receptor-RGS19 fusion protein expressed in Sf9 cells coexpressing Galphai2,Gbeta1gamma2 preincubated for 2 mins before [gamma32P]GTP addition measured after 20 mins by steady-state GTPase activity assay
Histamine H3 receptor [8] = target: T2, Histamine H3 receptor; assay: Intrinsic activity at human recombinant histamine H3 receptor expressed in Sf9 cells coexpressing Galphai2,Gbeta1gamma2 and RGS4 preincubated for 2 mins before [gamma32P]GTP addition measured after 20 mins by steady-state GTPase activity assay relative to histamine
[9] = target: Histamine H1 receptor (Homo sapiens) (UniProt P35367); assay: Antagonist activity at human recombinant histamine H1 receptor expressed in Sf9 cells coexpressing RGS4 assessed as inhibition of histamine-induced […] hydrolysis preincubated for 2 mins before [gamma32P]GTP addition measured after 20 mins by steady-state GTPase activity assay; format: functional
Sequence of Histamine H1 receptor (Homo sapiens) (P35367 whole entry, the tested form may be a part): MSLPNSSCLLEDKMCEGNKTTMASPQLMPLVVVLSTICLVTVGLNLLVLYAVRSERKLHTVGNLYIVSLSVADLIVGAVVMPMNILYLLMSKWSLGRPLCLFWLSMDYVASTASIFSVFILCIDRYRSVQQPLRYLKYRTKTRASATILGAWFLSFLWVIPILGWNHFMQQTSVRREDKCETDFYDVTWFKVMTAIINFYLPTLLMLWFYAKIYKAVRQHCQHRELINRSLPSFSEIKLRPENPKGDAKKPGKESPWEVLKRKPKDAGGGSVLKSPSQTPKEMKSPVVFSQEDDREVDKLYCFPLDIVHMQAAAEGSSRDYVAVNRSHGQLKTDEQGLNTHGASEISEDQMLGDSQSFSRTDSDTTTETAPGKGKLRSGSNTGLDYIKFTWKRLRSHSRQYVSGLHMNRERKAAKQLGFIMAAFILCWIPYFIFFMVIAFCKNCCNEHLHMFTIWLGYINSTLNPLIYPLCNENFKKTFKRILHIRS

Histamine H2 receptor [10] = target: T1, Histamine H2 receptor; assay: Intrinsic activity at human recombinant histamine H2 receptor-Gsalphas fusion protein expressed in Sf9 cells preincubated for 2 mins before [gamma32P]GTP addition measured after 20 mins by steady-state GTPase activity assay relative to histamine
[11] = target: Histamine H1 receptor (Homo sapiens) (UniProt P35367); assay: Intrinsic activity at human recombinant histamine H1 receptor expressed in Sf9 cells coexpressing RGS4 preincubated for 2 mins before [gamma32P]GTP addition measured after 20 mins by steady-state GTPase activity assay relative to histamine
Histamine H2 receptor [12] = target: T3, Histamine H2 receptor; assay: Agonist activity at guinea pig histamine H2 receptor assessed as potentiation of histamine-induced response at after 30 mins
Histamine H2 receptor [13] = target: T1, Histamine H2 receptor; assay: Agonist activity at human recombinant histamine H2 receptor-Gsalphas fusion protein expressed in Sf9 cells preincubated for 2 mins before [gamma32P]GTP addition measured after 20 mins by steady-state GTPase activity assay
[14] = target: Histamine H2 receptor (Cavia porcellus) (UniProt P47747); assay: Agonist activity at guinea pig histamine H2 receptor assessed as potentiation of histamine-induced response after 30 mins relative to histamine
Histamine H1 receptor = Histamine H1 receptor (Cavia porcellus, UniProt P31389); assay: Antagonist activity at guinea pig ileum histamine H1 receptor assessed as inhibition of histamine-induced response after 10 to 15 mins; format: tissue-based; conditions: read-out: pA2 (converted)
Sequence of Histamine H1 receptor (P31389 whole entry, the tested form may be a part): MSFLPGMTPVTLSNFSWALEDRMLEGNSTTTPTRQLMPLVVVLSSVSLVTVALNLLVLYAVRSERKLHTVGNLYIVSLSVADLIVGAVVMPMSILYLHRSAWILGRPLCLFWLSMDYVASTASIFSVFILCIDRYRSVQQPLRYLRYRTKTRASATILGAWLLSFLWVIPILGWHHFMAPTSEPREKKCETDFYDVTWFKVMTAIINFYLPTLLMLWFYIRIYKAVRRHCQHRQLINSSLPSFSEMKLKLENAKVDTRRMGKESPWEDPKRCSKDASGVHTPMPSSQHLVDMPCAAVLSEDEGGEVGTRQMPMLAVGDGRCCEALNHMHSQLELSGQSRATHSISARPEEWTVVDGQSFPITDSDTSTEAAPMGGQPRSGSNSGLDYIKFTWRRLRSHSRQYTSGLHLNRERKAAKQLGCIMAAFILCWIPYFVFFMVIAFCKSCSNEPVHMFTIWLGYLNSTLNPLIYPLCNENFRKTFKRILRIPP

Histamine H4 receptor [15] = target: T4, Histamine H4 receptor; assay: Intrinsic activity at human recombinant histamine H4 receptor-RGS19 fusion protein expressed in Sf9 cells coexpressing Galphai2,Gbeta1gamma2 assessed as [35S]GTPgammaS binding at 10 uM after 90 mins by liquid scintillation counting relative to histamine; format: functional
Histamine H4 receptor [16] = target: T4, Histamine H4 receptor; assay: Agonist activity at human recombinant histamine H4 receptor-RGS19 fusion protein expressed in Sf9 cells coexpressing Galphai2,Gbeta1gamma2 assessed as [35S]GTPgammaS binding after 90 mins by liquid scintillation counting; format: functional
Histamine H2 receptor [17] = target: T1, Histamine H2 receptor; assay: Antagonist activity at human recombinant histamine H2 receptor-Gsalphas fusion protein expressed in Sf9 cells assessed as inhibition of histamine-induced [35S]GTPgammaS binding after 90 mins by liquid scintillation counting; format: functional
Histamine H2 receptor [18] = target: T1, Histamine H2 receptor; assay: Intrinsic activity at human recombinant histamine H2 receptor-Gsalphas fusion protein expressed in Sf9 cells assessed as [35S]GTPgammaS binding at 10 uM after 90 mins by liquid scintillation counting relative to histamine; format: functional
[19] = Selectivity ratio of EC50 for human recombinant histamine H3 receptor expressed in Sf9 cells coexpressing Galphai2,Gbeta1gamma2 and RGS4 to EC50 for human recombinant histamine H4 receptor-RGS19 fusion protein expressed in Sf9 cells coexpressing Galphai2,Gbeta1gamma2
Histamine H3 receptor [20] = target: T2, Histamine H3 receptor; assay: Intrinsic activity at human recombinant histamine H3 receptor expressed in Sf9 cells coexpressing Galphai2,Gbeta1gamma2 and RGS4 assessed as [35S]GTPgammaS binding at 10 uM after 90 mins by liquid scintillation counting relative to histamine; format: functional
Histamine H3 receptor [21] = target: T2, Histamine H3 receptor; assay: Antagonist activity at human recombinant histamine H3 receptor expressed in Sf9 cells coexpressing Galphai2,Gbeta1gamma2 and RGS4 assessed as inhibition of histamine-induced [35S]GTPgammaS binding after 90 mins by liquid scintillation counting; format: functional
[22] = Selectivity ratio of EC50 for human recombinant histamine H1 receptor expressed in Sf9 cells coexpressing RGS4 to EC50 for human recombinant histamine H4 receptor-RGS19 fusion protein expressed in Sf9 cells coexpressing Galphai2,Gbeta1gamma2
[23] = Selectivity ratio of EC50 for human recombinant histamine H2 receptor-Gsalphas fusion protein expressed in Sf9 cells to EC50 for human recombinant histamine H4 receptor-RGS19 fusion protein expressed in Sf9 cells coexpressing Galphai2,Gbeta1gamma2
Histamine H4 receptor [24] = target: T4, Histamine H4 receptor; assay: as §1, with “H4 receptor-RGS19” for “H2 receptor-Gsalphas”, “cells coexpressing Galphai2,Gbeta1gamma2” for “cells”; format: functional
[25] = target: Histamine H2 receptor (Cavia porcellus) (UniProt P47747); assay: Agonist activity at guinea pig histamine H2 receptor assessed as potentiation of histamine-induced response at 10 uM after 30 mins relative to histamine
[26] = target: Histamine H2 receptor (Cavia porcellus) (UniProt P47747); assay: as §2

| Structure (SMILES) | pKb (Histamine H2 receptor [1]) | Emax [2] | pKb (Histamine H3 receptor [3]) | pD'2 [4] | Kb (Histamine H2 receptor [5]) | Intrinsic activity (Histamine H4 receptor [6]) | EC50 (Histamine H4 receptor [7]) | Intrinsic activity (Histamine H3 receptor [8]) | pKb [9] | Intrinsic activity (Histamine H2 receptor [10]) | Intrinsic activity [11] | Efficacy [14] | Kb (Histamine H1 receptor) | pKb (Histamine H4 receptor [24]) | further results |
| --- | --- | --- | --- | --- | --- | --- | --- | --- | --- | --- | --- | --- | --- | --- | --- |
| Cc1[nH]cnc1CCCCN/C(=N\C#N)NCCSc1ccccc1 | – | – | – | – | – | – | – | – | < 5.3 | – | -0.03 | – | – | – | Intrinsic activity (Histamine H4 receptor [15]): 0.37; EC50 (Histamine H4 receptor [16]): 245 nM; pKb (Histamine H2 receptor [17]): 5.36; Intrinsic activity (Histamine H2 receptor [18]): -0.06; Ratio EC50 [19]: > 10; Intrinsic activity (Histamine H3 receptor [20]): -0.65; pKb (Histamine H3 receptor [21]): 5.5; Ratio EC50 [22]: > 10; Ratio EC50 [23]: > 10 |
| CC(CC(=O)/N=C(\N)NCCCc1ccc(CN(C)C)o1)c1ccccc1 (configuration not stated) | 6.52 | – | 5.92 | – | – | – | – | -0.64 | < 5 | -0.12 | 0.04 | 0% | 3020 nM | < 5 | Emax [25]: 68% |

Now from value to compound, other results behind:

| pKb (Histamine H2 receptor [1]) | Emax [2] | pKb (Histamine H3 receptor [3]) | pD'2 [4] | Kb (Histamine H2 receptor [5]) | Intrinsic activity (Histamine H4 receptor [6]) | EC50 (Histamine H4 receptor [7]) | Intrinsic activity (Histamine H3 receptor [8]) | pKb [9] | Intrinsic activity (Histamine H2 receptor [10]) | Intrinsic activity [11] | Efficacy [14] | Kb (Histamine H1 receptor) | pKb (Histamine H4 receptor [24]) | Structure (SMILES) | further results |
| --- | --- | --- | --- | --- | --- | --- | --- | --- | --- | --- | --- | --- | --- | --- | --- |
| 5.3 | 54% | 5.41 | 4.44 | 12600 nM | 0.35 | 2880 nM | -0.32 | < 5 | 0.03 | 0.09 | – | – | – | CC(CC(=O)/N=C(\N)NCCCc1ncc[nH]1)c1ccccc1 (configuration not stated) | – |
| – | – | < 5 | – | 479 nM | – | – | -0.03 | < 5 | 0.66 | – | 100% | 1480 nM | – | CC(CC(=O)/N=C(\N)NCCCc1ncn[nH]1)c1ccccc1 (configuration not stated) | EC50 (Histamine H2 receptor [12]): 100 nM; pEC50 (Histamine H4 receptor [7]): inactive; EC50 (Histamine H2 receptor [13]): 741 nM |
| < 5 | 69% | < 5 | 4.16 | > 31600 nM | 0.77 | 1000 nM | -0.05 | < 5 | – | – | – | 1120 nM | – | CC(CC(=O)/N=C(\N)NCCCn1ccnc1)c1ccccc1 (configuration not stated) | – |
| 5.54 | – | < 5 | 4.54 | 19100 nM | – | – | -0.07 | < 5 | 0 | 0.12 | – | – | < 5 | CC(CC(=O)/N=C(\N)NCCCc1ccncc1)c1ccccc1 (configuration not stated) | pD2 [26]: 4.54 |
